Reference: patent publication US11839637B2, “Neuron activator” (Kinjirushi Co., Ltd., priority 2017, dated 2023)

Columns and labels:
Type in all cases: cell-based, rat
[1] = system: PC12 cells; assay: Neurite extension test of PC12 cells (Experimental example 3); conditions: 72 hours; for neurite extension effect, as compared to a case without these components: any one component in the medium, NGF 50 ng/ml
Experimental: Neurite extension tests of PC12 cells, using various components, were carried out as follows.
(§1) Such passage was repeated at least three times.
(§2) Supernatants were removed.
(§3) Each sample is numbered 1 to 39.
Supernatants were removed. Three microscopic images (bright field, ×10 images, three wells per well) of PC12 cells settled in each well were taken. The shape of the whole PC12 cells in the images was observed. A shown in FIG. 6, when PC12 cells undergo differentiation, a neurite 2 extends from a cell body 1. The total number of PC12 cells, and the number of cells having the neurite 2 with a length L2 were counted. The length L2 is a longer length than a longer diameter L1 of the cell body 1. The number of cells having the neurite with the length L2 was divided by the total number of cells to obtain an extension percentage of the PC12 cells. […] The extension percentage was expressed by an average value of all PC12 cells appearing in all images. […] The same applies to FIGS. 8 to 11. […] Synergistic effect herein means that use of two components in combination can increase the extension percentage as compared to a sum of extension percentages when each component is used alone.

[2] = system: PC12 cells; assay: Hydrogen peroxide toxicity resistance test, MTT (Experimental example 6); conditions: for MTT assay in medium with hydrogen peroxide: hydrogen peroxide 100 μM, component alone or combination with 6-MSITC
Experimental: In Experimental example 6, resistance of PC12 cells against hydrogen peroxide was tested. The test method is the same as that of Experimental example 5, except that hydrogen peroxide was added to the differentiation medium B, instead of amyloid β in Experimental example 5 above. A concentration of hydrogen peroxide in the differentiation medium B was 100 μM.

[3] = system: PC12 cells; assay: Dopamine production test of PC12 cells (Experimental example 1); conditions: 72 hours; for dopamine-producing ability, as compared to a case without these components: any one component in the medium, NGF 50 ng/ml
Experimental: Dopamine production tests of PC12 cells, using various components, were carried out as follows.
as §1, §2, §3
A concentration of dopamine in each supernatant was measured. Measurement of dopamine concentration was carried out using ELIZA KIT (manufactured by ImmuSmol, Product No.: BA-E-5300) according to the specifications. A ratio of dopamine concentration in each supernatant was expressed as a percentage (%) of a control of which dopamine concentration in the supernatant is 1.
The same applies to FIGS. 2 to 5. In FIG. 1, τ means statistically significant. * means that synergistic effect was confirmed by combining two components. Synergistic effect herein means that use of two components in combination can produce more amount of dopamine than a sum of amounts of dopamine produced when each component is used alone.

[4] = system: PC12 cells; assay: Toxicity test to PC12 cells using MTT reagent (Experimental example 2); conditions: 72 hours, 6-MSITC and DHA 2.5-160 μM, curcumin 2.5-40 μM, isorhamnetin 0.02-10 μM
Experimental: In order to investigate toxicity of each component to PC12 cells, the PC12 cells were cultured in the same manner as in the above steps (1) to (4) of Experimental example 1, except for components added to the medium.
as §2

[5] = system: PC12 cells; assay: Toxicity test to PC12 cells using MTT reagent (Experimental example 4); conditions: 72 hours, 6-MSITC and DHA 2.5-160 μM, curcumin 2.5-40 μM, isorhamnetin 2.5-20 μM
Experimental: In order to investigate toxicity of each component to PC12 cells, the PC12 cells were cultured in the same manner as in the above steps (1) to (4) of Experimental example 3, except for components added to the medium.
as §2

SMILES	extension of PC12 cells (extension percentage) ([1]; 0.1 μM added to the medium)	extension of PC12 cells (extension percentage) ([1]; 0.5 μM added to the medium)	extension of PC12 cells (extension percentage) ([1]; 2.5 μM added to the medium)	neurite extension effect, as compared to a case without these components [1]	MTT assay in medium with hydrogen peroxide [2]	amount of dopamine production produced by the PC12 cells vs control ([3]; 0.1 μM added to the medium)	amount of dopamine production produced by the PC12 cells vs control ([3]; 2.5 μM added to the medium)	dopamine-producing ability, as compared to a case without these components [3]	MTT assay, as compared to the medium without hydrogen peroxide (control) ([2]; medium containing only hydrogen peroxide, 100 μM)	extension of PC12 cells (extension percentage) ([1]; 0.02 μM added to the medium)	MTT assay compared with control (not using the component) [4]	toxicity to PC12 cells ([4]; MTT)	MTT assay compared with control (not using the component) [5]	toxicity to PC12 cells ([5]; MTT)	amount of dopamine production produced by the PC12 cells vs control ([3]; 0.02 μM added to the medium)	amount of dopamine production produced by the PC12 cells vs control ([3]; 0.5 μM added to the medium)
COc1cc(/C=C/C(=O)CC(=O)/C=C/c2ccc(O)c(OC)c2)ccc1O [curcumin, Curcumin]	significant extension enhancement	significant extension enhancement	significant extension enhancement	enhanced	a value without problem	higher than the control	higher than the control	enhanced								
OO [hydrogen peroxide, reference compound]									significantly decreased							
COc1cc(-c2oc3cc(O)cc(O)c3c(=O)c2O)ccc1O [isorhamnetin, Isorhamnetin]	significant extension enhancement	significant extension enhancement		enhanced	a value without problem	higher than the control		enhanced		significant extension enhancement	higher than the case of not using them (control)	low	higher than the case of not using them (control)	low	higher than the control	higher than the control
